# Results as given in ChEMBL document CHEMBL3507680, “University of Dundee, Gates Library screen for HepG2 cell viability”.
# Assay: Human HepG2 cell viability assay in 384 well format
# Type: toxicity, cell-based
# Set-up: dose 125 nL, time 70.5 hour; concentration not given beside the values
# Details: HepG2 cells, read-out: Inhibition
row,Structure (SMILES),cytotoxicity at 70.5 h [%]
1,COCC1CN(C(=O)c2ccccn2)Cc2nccn2C1 (configuration not stated),-11.1
2,Cn1cc(CN2CCCC3(CCN(Cc4ccncc4)C3=O)C2)cn1 (configuration not stated),-10.1
3,CCCNC(=O)c1cc2c(s1)CCN2C(=O)c1ccccc1,14.2
4,Cc1cncc(C(=O)N2CCc3ncc(Cn4cccn4)n3CC2)c1,22.9
5,COCC(=O)N1Cc2nccn2CC(Cn2ncccc2=O)C1 (configuration not stated),-10
6,Cc1noc(C)c1CN1CCC2(CC1)NC(=O)CC2c1cnn(C)c1 (configuration not stated),-8.52
7,O=C(c1ccc[nH]1)N1CCN(Cc2ccncc2)c2ncccc2C1,-11.6
8,O=C(c1ccco1)N1Cc2nccn2CC(Cn2ncccc2=O)C1 (configuration not stated),-6.66
9,O=C(c1ccoc1)N1CCc2ncc(Cn3cccn3)n2CC1,-7.98
10,Cn1cc(C2CC(=O)NC23CCN(Cc2nccs2)CC3)cn1 (configuration not stated),-9.24
11,COCC(=O)N1CC[C@H]2C[C@H](c3nnc(C4CC4)o3)O[C@@H]2C1,-8.34
12,Cc1ccc(C(=O)N2CCc3ncc(Cn4cccn4)n3CC2)cn1,-6.29
13,CC(C)CO[C@@H]1CC[C@H]2[C@H]1OCCN2S(=O)(=O)C1CC1,12.4
14,NC(=O)N1Cc2nccn2CC(Cn2ncccc2=O)C1 (configuration not stated),1.65
15,O=C(N1CCCC1)N1Cc2nccn2CC(Cn2ncccc2=O)C1 (configuration not stated),-0.168
16,c1cnc(NC[C@H]2OC[C@@H]3CCN(Cc4ccncc4)C[C@@H]32)nc1,17.4
17,CN(Cc1cccnc1)[C@@H]1CN(c2ccccn2)[C@@H]2CCCO[C@H]12,-9.04
18,CNC(=O)[C@H]1C[C@@H]2CN(C(=O)c3occc3C)C[C@@H]2N1S(C)(=O)=O,-5.67
19,CC1c2ncc(Cn3cncn3)n2CCN1C(=O)c1cscn1 (configuration not stated),20.8
20,COCCN1Cc2ccccc2C2(CCN(S(C)(=O)=O)CC2)C1,-5.3
21,O=C(C1CCOC1)N1CCN(Cc2ccncc2)c2ncccc2C1 (configuration not stated),-9.12
22,O=C(c1cnccn1)N1CCC2(CCN(Cc3ccsc3)CC2)CC1,-2.48
23,O=C(c1cnccn1)N1CCC2(CCN(Cc3ccsc3)C2)CC1,-5.07
24,O=C(N1CCCO1)[C@@]12CCO[C@@H]1CCN(Cc1ccsc1)C2,-6.2
25,Cc1cnc(N2CCc3c(CN(C)Cc4ccco4)cncc3C2)nc1,-5.82
26,Cc1occc1C(=O)N1CCn2c(Cn3cncn3)cnc2C1C (configuration not stated),50.5

row,Structure (SMILES),cytotoxicity at 70.5 h [%]
1,Cc1nc(CN2C(=O)CCC23CCN(c2ncccc2C)CC3)cs1,33.3
2,CCOCC1CN(C(=O)c2ccco2)Cc2cnn(C)c21 (configuration not stated),-2.81
3,CS(=O)(=O)N[C@H]1COC[C@@H]2CN(Cc3ccco3)C[C@@H]21,-5.39
4,CCC(C)N1CCc2nc(N3CCCC3)nc(NC(C)C)c2C1 (configuration not stated),-7.15
5,CC(C)CCN1C2(CCN(C(=O)N(C)C)C2)c2ccccc2S1(=O)=O (configuration not stated),-17.2
6,COCC1c2nnn(CC3CC3)c2CCN1C(=O)Cc1cccs1 (configuration not stated),-8.15
7,CCC(=O)N1CCC2(CC1)COc1ccccc1S(=O)(=O)N(C)C2,-14.6
8,Cc1ncsc1CN1C[C@@H](OCC2CC2)[C@H]2OCCC[C@H]21,-5.13
9,Cc1noc(C2CCC3(CCN(C(=O)C4=CCCCC4)CC3)O2)n1 (configuration not stated),-6.87
10,CCn1ncc2c1C(COC)CN(Cc1ccc(OC)cc1)C2 (configuration not stated),-5.26
11,CCC(=O)N1CCC2(COCc3c(C)nc(N(C)C)nc32)C1 (configuration not stated),20.3
12,CCOCc1ncn2c1CN(C(=O)Nc1cccc(C)c1)CC2,-6.82
13,Cc1ccc(N2CC[C@H](OCC3CC3)[C@@H]2Cc2cnn(C)c2)nn1,0.692
14,O=C(C1=CCCC1)N1C[C@H](Oc2cccnc2)[C@H]2OCCC[C@H]21,-4.92
15,O=C(c1ccnnc1)N1C[C@H](Oc2cccnc2)[C@H]2OCCC[C@H]21,3.85
16,O=C(c1ccc[nH]1)N1C[C@H](OCc2cccnc2)[C@H]2COC[C@H]21,5.01
17,Cc1cccc(CN2CC3(CCNCC3)OCC2=O)n1,0.469
18,CN(C)c1ncc(-c2cc(C(=O)O)n(CC3CC3)c2)cn1,-4.19
19,CC(C)(C)CC(=O)N1CC[C@@H]2[C@H](CC1)N(S(C)(=O)=O)CCS2(=O)=O,-5.98
20,CS(=O)(=O)N1Cc2nccn2CC(Cn2ncccc2=O)C1 (configuration not stated),3.97
21,O=C(c1ccccn1)N1Cc2nccn2CC(COc2cccnc2)C1 (configuration not stated),22.8
22,Cc1ccc(C(=O)N2CCc3c(CNS(C)(=O)=O)cncc3C2)o1,0.323
23,Cc1ccc(N2CCc3c(CN(C)Cc4ccco4)cncc3C2)nn1,-9.85
24,CCS(=O)(=O)N1CCc2c(CN(C)Cc3ccco3)cncc2C1,-6.14
25,CC(=O)N1CCC(c2nc3ccc(-c4ccnn4C)cn3n2)CC1,-12.4
26,O=C(c1ccoc1)N1C[C@@H]2OCCN(c3ncccn3)[C@@H]2C1,1.23

row,Structure (SMILES),cytotoxicity at 70.5 h [%]
1,CN1CC(=O)N(c2ccccc2)CC12CCN(C(=O)c1cnccn1)C2 (configuration not stated),22.8
2,O=C(C1CCC1)N1CCO[C@H]2[C@H](OCCCn3cccn3)CC[C@@H]21,29
3,Cc1cccc(CN2CCC3(CC2)NC(=O)C[C@H]3c2cnn(C)c2)n1,-8.35
4,Cc1ccc(N2CC[C@H]3C[C@H](C(=O)NCc4ccco4)O[C@H]3C2)nn1,-11.1
5,N#Cc1ccc(N2CCCC3(CCN(c4cccnc4)CC3)C2)cc1,51.2
6,CNC(=O)[C@H]1CO[C@H]2CCN(c3ncc(F)cn3)C[C@H]2C1,-8.64
7,Cn1cc(C2CC(=O)NC23CCN(C(=O)Cc2ccccn2)CC3)cn1 (configuration not stated),-5.18
8,O=C(CC1CC1)N1CCO[C@H]2[C@H](OCCCn3cccn3)CC[C@@H]21,-4.17
9,CN(C)C(=O)[C@H]1CO[C@H]2CCN(c3ncc(F)cn3)C[C@H]2C1,-8.69
10,O=C(NCc1ccco1)[C@H]1C[C@@H]2CCN(c3ncccn3)C[C@H]2O1,-5.11
11,O=C(Nc1cnccn1)[C@H]1CO[C@H]2CCN(c3ncc(F)cn3)C[C@H]2C1,15
12,Cc1ccc(N2CC[C@H]3C[C@H](C(=O)NCc4ccco4)O[C@@H]3C2)cc1,2.5
13,CCC(=O)N1CCC2(CC1)CN(CCO)Cc1ccccc12,1.97
14,Cc1ccc(CN2CCC3(CC2)CN(C(=O)c2cnccn2)CCO3)o1,-6.5
15,c1cnc(N2C[C@@H]3COC[C@]3(COCC3CCCC3)C2)nc1,-14.8
16,CCc1ccc(CN2C[C@@H]3COC[C@H](NS(C)(=O)=O)[C@@H]3C2)o1,-18.1
17,CN(C)C(=O)COC[C@]12COC[C@H]1CN(CC1CCC1)C2,-6.61
18,O=C(c1ccoc1)N1CC[C@H]2OCC[C@@]2(COc2ncccc2F)C1,-9.01
19,CCS(=O)(=O)N1C[C@H]2CN(Cc3cccnc3)C(=O)[C@H]2C1,16.7
20,CC(C)CNC(=O)[C@H]1CCS(=O)(=O)[C@@H]2CN(Cc3cccc(Cl)c3)C[C@H]12,24.3
21,c1nc2c(c(-c3ccsc3)n1)CCN(Cc1ccoc1)CC2,19.3
22,CN(C)C(=O)[C@@H]1CCO[C@@H]2CCN(Cc3ccccc3)C[C@@H]21,-3.08
23,CC1c2ncc(Cn3cncn3)n2CCN1C1CCOCC1 (configuration not stated),2.73
24,N#Cc1ccc(C(=O)N2CCn3c(Cn4cccn4)cnc3C2)cc1,7.14
25,O=C1CC(c2ccccc2)C2(CCN(CC3CC3)CC2)N1 (configuration not stated),-5.14
26,O=C(NCc1ccco1)[C@H]1C[C@@H]2CCN(c3ccncn3)C[C@@H]2O1,-5.88

row,Structure (SMILES),cytotoxicity at 70.5 h [%]
1,Fc1ccc(CN2CCO[C@H]3[C@H](OCC4CC4)CC[C@@H]32)cc1,-4.72
2,CCN1CCC2(CC1)CC(NC(=O)N(C)C)c1cc(C)ccc12 (configuration not stated),1.47
3,Cn1cc(C2CC(=O)NC23CCN(Cc2ccncc2)CC3)cn1 (configuration not stated),13.9
4,CN1CC(=O)N(c2cccnc2)CC12CCN(C(=O)c1cccn1C)C2 (configuration not stated),1.98
5,Cc1nc2c(cc1C(=O)O)CCN(Cc1ccsc1)CC2,-6.12
6,CNC(=O)[C@H]1C[C@@H]2CCN(Cc3ccncc3)C[C@H]2O1,-6.07
7,COCCNC(=O)[C@H]1C[C@@H]2CCN(Cc3ccncc3)C[C@H]2O1,-9.09
8,c1cncc(N2CCCC3(CCN(CCN4CCCC4)CC3)C2)c1,-1.3
9,c1cnn(CCCO[C@@H]2CN(C3CCOCC3)[C@@H]3CCCO[C@@H]32)c1,4.39
10,O=C(Nc1cccnc1)[C@H]1CO[C@H]2CCNC[C@H]2C1,0.847
11,c1cnc(NC[C@H]2OC[C@@H]3CCN(Cc4ccsc4)C[C@@H]32)nc1,-6.36
12,Cc1nc(CN2CCC3(CCN(Cc4nccn4C)CC3)C2=O)cs1,-7.58
13,CC1c2ncc(CNC(=O)C3CC3)n2CCN1Cc1ccncc1 (configuration not stated),-16.1
14,Cn1cnc2c1C(COCC1CC1)CN(Cc1ccc3c(c1)OCO3)C2 (configuration not stated),36.5
15,CN1[C@H](Cn2cncn2)C[C@@H]2CN(Cc3cccc(C#N)c3)CC[C@@H]21,-6.46
16,Cc1cccc(C(=O)N2C[C@@H]3OCCN(c4ncccn4)[C@@H]3C2)n1,2.67
17,O=C1CC[C@@H]2[C@@H](CCN2Cc2ccncc2)N1c1ccccc1,4.02
18,Cn1cccc1C(=O)N1CCN(Cc2ccncc2)c2ncccc2C1,-7.79
19,Fc1ccc(CN2CCO[C@H]3[C@H](OCCN4CCCC4)CC[C@@H]32)cc1,-5.14
20,COCC1c2c(cnn2CC2CC2)CCN1Cc1cccs1 (configuration not stated),-2.83
21,Cn1cc(CN2CC[C@H]3CO[C@H](CNc4ncccn4)[C@H]3C2)cn1,20.3
22,Cc1cccc(CN2CC[C@@H]3[C@@H](CO[C@H]3CNc3ncccn3)C2)n1,-8.04
23,O=C(NCC1CC1)C1CN(Cc2ccncc2)Cc2ccnn2C1 (configuration not stated),-11.9
24,CN(Cc1cccnc1)[C@@H]1CN(CC2CC2)[C@@H]2CCCO[C@H]12,-2.78
